According to ChEMBL document CHEMBL5352408, “Discovery of dehydroandrographolide derivatives with C19 hindered ether as potent anti-ZIKV agents with inhibitory activities to MTase of ZIKV NS5” (Eur J Med Chem, 2022):
The source made the active and inactive calls. The calls are words filed in the database; no cut-off is given here.

Legend:
Zika virus [1] = assay: Antiviral activity against ZIKV infected in African green monkey vero cells assessed as reduction in plaque formation incubated for 5 days by crystal violet based assay; format: functional, organism-based; details: for EC50: 120 h
Genome polyprotein = Genome polyprotein (Zika virus, UniProt Q32ZE1); assay: Inhibition of ZIKV NS5 MTase activity assessed as methyltransferase reaction using capped RNA substrate pre-incubated for 2.5 hrs followed by enzyme addition measured after 1 hrs by luminometer
Sequence of Genome polyprotein (Q32ZE1 2517-3419 limits assumed): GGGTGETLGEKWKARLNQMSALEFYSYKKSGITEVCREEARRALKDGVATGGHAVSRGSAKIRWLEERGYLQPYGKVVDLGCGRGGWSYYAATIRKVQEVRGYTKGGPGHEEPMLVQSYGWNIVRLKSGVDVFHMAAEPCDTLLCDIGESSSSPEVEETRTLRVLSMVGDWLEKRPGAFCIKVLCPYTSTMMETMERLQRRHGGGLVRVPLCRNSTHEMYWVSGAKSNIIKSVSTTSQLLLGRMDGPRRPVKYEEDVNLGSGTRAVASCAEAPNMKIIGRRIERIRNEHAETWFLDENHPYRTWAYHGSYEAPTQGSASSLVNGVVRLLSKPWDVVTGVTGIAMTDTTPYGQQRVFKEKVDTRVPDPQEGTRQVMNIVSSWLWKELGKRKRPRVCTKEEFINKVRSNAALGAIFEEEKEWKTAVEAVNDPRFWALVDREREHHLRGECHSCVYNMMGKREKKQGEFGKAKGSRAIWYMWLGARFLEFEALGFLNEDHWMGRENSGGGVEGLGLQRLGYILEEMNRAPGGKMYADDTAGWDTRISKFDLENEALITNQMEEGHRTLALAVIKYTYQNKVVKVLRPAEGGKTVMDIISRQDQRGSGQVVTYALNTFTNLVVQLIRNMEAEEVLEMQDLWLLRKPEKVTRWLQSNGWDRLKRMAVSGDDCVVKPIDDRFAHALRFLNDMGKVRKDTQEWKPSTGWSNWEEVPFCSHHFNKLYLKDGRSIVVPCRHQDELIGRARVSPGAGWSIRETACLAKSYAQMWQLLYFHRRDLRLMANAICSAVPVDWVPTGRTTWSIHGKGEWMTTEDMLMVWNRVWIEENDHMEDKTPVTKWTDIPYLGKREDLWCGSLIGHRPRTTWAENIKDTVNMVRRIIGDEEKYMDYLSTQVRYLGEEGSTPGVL

Zika virus [2] = assay: Antiviral activity against ZIKV infected in African green monkey Vero cells assessed as inhibition of ZIKV E protein at 0.4 uM incubated for 48 hrs by Western blot analysis relative to control; format: functional
Zika virus [3] = assay: Antiviral activity against ZIKV infected in human Huh-7 cells incubated for 48 hrs by qRT-PCR analysis; format: functional, organism-based; details: Huh-7, 48 h
[4] = Cytotoxicity against african green monkey Vero cells incubated for 96 hrs; format: toxicity, cell-based; details: chlorocebus sabaeus
Zika virus [5] = assay: Antiviral activity against ZIKV infected in African green monkey Vero cells incubated for 48 hrs by Western blot analysis relative to control; format: functional, organism-based
Zika virus [6] = assay: Antiviral activity against ZIKV infected in Vero cells assessed as inhibition of viral entry at 10 uM Co-treated with virus with Vero cells followed by transferred into fresh medium measured upto 48 hrs by qRT-PCR analysis based time of drug addition assay; format: functional, organism-based; details: time 4.0 hrs
Zika virus [7] = assay: Antiviral activity against ZIKV infected in Vero cells assessed as viral infection at 10 uM pre-treated with Vero cells for 2 hrs followed by infected with virus cells for 2 hrs and measured upto 48 hrs in fresh medium by qRT-PCR analysis based time of drug addition assay; format: functional, organism-based; details: time 4.0 hrs
[8] = biological target: Nonstructural protein 3 (Zika virus) (UniProt A0A024AXB9); assay: Inhibition of ZIK virus NS2B-NS3 protease
Sequence of Nonstructural protein 3 (Zika virus) (A0A024AXB9 as listed by the source): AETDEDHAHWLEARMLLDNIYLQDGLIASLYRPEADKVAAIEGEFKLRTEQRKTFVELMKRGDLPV

Zika virus [9] = assay: Antiviral activity against ZIKV infected in Vero cells assessed as late viral life cycle by measuring reduction in viral RNA reduction at 10 uM treated 8 hrs post infection incubated for 48 hrs by qRT-PCR analysis based time of drug addition assay; format: functional, organism-based
NS5 (Zika virus) = NS5 (Zika virus) (UniProt A0A143MHK7); assay: Inhibition of ZIKV RdRP
Sequence of NS5 (Zika virus) (A0A143MHK7 as listed by the source): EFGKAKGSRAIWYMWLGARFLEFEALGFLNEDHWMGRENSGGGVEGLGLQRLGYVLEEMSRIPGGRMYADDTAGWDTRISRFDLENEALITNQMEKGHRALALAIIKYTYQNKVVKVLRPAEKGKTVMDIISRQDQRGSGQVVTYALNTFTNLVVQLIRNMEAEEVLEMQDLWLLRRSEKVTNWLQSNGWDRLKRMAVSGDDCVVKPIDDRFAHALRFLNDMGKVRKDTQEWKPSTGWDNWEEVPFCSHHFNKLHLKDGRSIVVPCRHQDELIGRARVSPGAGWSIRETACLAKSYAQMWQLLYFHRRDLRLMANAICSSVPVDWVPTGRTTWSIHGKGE

Zika virus [10] = assay: Antiviral activity against ZIKV infected in African green monkey vero cells incubated for 48 hrs by qRT-PCR analysis; format: functional, organism-based
Zika virus [11] = assay: Antiviral activity against ZIKV infected in Vero cells assessed as viral RNA reduction at 10 uM treated immediately post infection incubated for 48 hrs by qRT-PCR analysis based time of drug addition assay; format: functional, organism-based
Zika virus [12] = assay: Antiviral activity against ZIKV infected in Vero cells assessed as late entry stage to late viral life cycle by measuring reduction in viral RNA reduction at 10 uM treated 1 to 2 hrs post infection incubated for 48 hrs by qRT-PCR analysis based time of drug addition assay; format: functional, organism-based
Zika virus [13] = assay: Antiviral activity against ZIKV infected in Vero cells assessed as virucidal effect at 10 uM pre-treated with virus for 2 hrs followed by infected with Vero cells for 2 hrs after washout transferred to normal medium measured after 48 hrs of post infection by qRT-PCR analysis based time of drug addition assay; format: functional, organism-based; details: time 4.0 hrs
[14] = Cytotoxicity against human Huh-7 cells incubated for 96 hrs; format: toxicity, cell-based
[15] = Cytotoxicity against human A549 cells incubated for 96 hrs; format: toxicity, cell-based
Zika virus [16] = assay: Antiviral activity against ZIKV infected in human A549 cells incubated for 48 hrs by qRT-PCR; format: functional, organism-based; details: A549, 48 h
Zika virus [17] = assay: Antiviral activity against ZIKV infected in Vero cells assessed as late RNA synthesis to late viral life cycle by measuring reduction in viral RNA reduction at 10 uM treated 10 hrs post infection incubated for 48 hrs by qRT-PCR analysis based time of drug addition assay relative to 8 hrs post-infection; format: functional, organism-based
Zika virus [18] = assay: Antiviral activity against ZIKV infected in Vero cells assessed as late viral life cycle by measuring reduction in viral RNA reduction at 10 uM treated 3 to 6 hrs post infection incubated for 48 hrs by qRT-PCR analysis based time of drug addition assay; format: functional, organism-based
Zika virus [19] = assay: Antiviral activity against ZIKV infected in Vero cells assessed as late viral life cycle by measuring reduction in viral RNA reduction at 10 uM treated 12 hrs post infection incubated for 48 hrs by qRT-PCR analysis based time of drug addition assay; format: functional, organism-based
Zika virus [20] = assay: Antiviral activity against ZIKV infected in African green monkey Vero cells assessed as inhibition of ZIKV E protein at 10 uM incubated for 48 hrs by Western blot analysis relative to control; format: functional

## C=C1CC[C@H]2[C@@](C)(CC/C(=N\O)[C@@]2(C)COC(c2ccccc2)c2ccccc2)[C@@H]1/C=C/C1=CCOC1=O
Zika virus [1]
  EC50: 3.49 µM
Genome polyprotein
  IC50: 183 µM

## C=C1CC[C@H]2[C@@](C)(CC/C(=N\O)[C@@]2(C)COC(c2ccccc2)(c2ccccc2)c2ccccc2)[C@@H]1/C=C/C1=CCOC1=O
Zika virus [1]
  EC50: 0.76 µM
Zika virus [2]
  inhibition at 0.4 µM: 100%
Zika virus [3]
  EC50: 0.37 µM
[4]
  CC50 at 96 h: > 200 µM
Zika virus [5]
  EC50: 0.38 µM
Zika virus [6]
  Activity: inactive
Zika virus [7]
  Activity: inactive
[8]
  inhibition: inactive
Zika virus [9]
  Activity: Active
NS5 (Zika virus)
  inhibition: inactive
Zika virus [10]
  EC50: 0.48 µM
Zika virus [11]
  Activity: Active
Zika virus [12]
  Activity: Active
Genome polyprotein
  IC50: 18.3 µM
Zika virus [13]
  Activity: inactive
[14]
  CC50 at 96 h: > 200 µM
[15]
  CC50 at 96 h: > 200 µM
Zika virus [16]
  EC50: 0.45 µM
Zika virus [17]
  Activity: inactive
Zika virus [18]
  Activity: Active
Zika virus [19]
  Activity: inactive

## NC(=O)c1ncn([C@@H]2O[C@H](CO)[C@@H](O)[C@H]2O)n1 [RIBAVIRIN]
Zika virus [20]
  inhibition at 10 µM: 50%

## C=C1CC[C@H]2[C@@](C)(CC/C(=N\O)[C@@]2(C)CO[Si](c2ccccc2)(c2ccccc2)C(C)(C)C)[C@@H]1/C=C/C1=CCOC1=O
Zika virus [1]
  EC50: 0.71 µM
[4]
  CC50 at 96 h: > 200 µM
Genome polyprotein
  IC50: 14.1 µM

## Nc1ncnc2c1ncn2[C@@H]1O[C@H](C[C@@H](N)CC[C@H](N)C(=O)O)[C@@H](O)[C@H]1O [SINEFUNGIN]
Genome polyprotein
  IC50: 19.2 µM

## C=C1CC[C@H]2[C@@](C)(CCC(=O)[C@@]2(C)COC(c2ccccc2)(c2ccccc2)c2ccccc2)[C@@H]1/C=C/C1=CCOC1=O
Zika virus [1]; time 5.0 day
  Activity: inactive

## C=C1CC[C@@H]2[C@](C)(CO)[C@H](O)CC[C@@]2(C)[C@@H]1C/C=C1/C(=O)OC[C@H]1O [ANDROGRAPHOLIDE]
Zika virus [1]
  EC50: 39.3 µM
[4]
  CC50 at 96 h: > 200 µM

## C=C1CC[C@@H]2[C@](C)(COC(c3ccccc3)(c3ccccc3)c3ccccc3)[C@H](O)CC[C@@]2(C)[C@@H]1/C=C/C1=CCOC1=O
Zika virus [1]
  EC50: 6.17 µM
[4]
  CC50 at 96 h: > 200 µM
Genome polyprotein
  IC50: 38.9 µM

## C=C1CC[C@@H]2[C@](C)(CO)[C@H](O)CC[C@@]2(C)[C@@H]1/C=C/C1=CCOC1=O
Zika virus [1]
  EC50: 30.6 µM
[4]
  CC50 at 96 h: > 200 µM
